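Cultured in 96-well plates, cells were exposed to test compound for 48 hours across five concentrations. The concentration for full growth arrest is given as TGI.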
Legend:
Experiment in all cases: growth of human tumour cells (NCI), 48 h
OVCAR-8 ovarian = test system: OVCAR-8 ovarian
SW-620 colon = test system: SW-620 colon
UACC-62 melanoma = test system: UACC-62 melanoma
CCRF-CEM leukemia = test system: CCRF-CEM leukemia
HL-60(TB) leukemia = test system: HL-60(TB) leukemia
NCI-H226 lung = test system: NCI-H226 lung
OVCAR-5 ovarian = test system: OVCAR-5 ovarian
SN12C renal = test system: SN12C renal
RXF 393 renal = test system: RXF 393 renal
OVCAR-3 ovarian = test system: OVCAR-3 ovarian
ACHN renal = test system: ACHN renal
EKVX NSCLC = test system: EKVX NSCLC
SNB-75 CNS = test system: SNB-75 CNS
MDA-N = test system: MDA-N
HS 578T breast = test system: HS 578T breast
HCT-15 colon = test system: HCT-15 colon
A549 NSCLC = test system: A549 NSCLC
HT29 colon = test system: HT29 colon
SK-OV-3 ovarian = test system: SK-OV-3 ovarian
HOP-62 NSCLC = test system: HOP-62 NSCLC
MALME-3M melanoma = test system: MALME-3M melanoma
MCF7 breast = test system: MCF7 breast
SR leukemia = test system: SR leukemia
COLO 205 colon = test system: COLO 205 colon
UO-31 renal = test system: UO-31 renal
HCT-116 colon = test system: HCT-116 colon
U251 CNS = test system: U251 CNS
SF-539 CNS = test system: SF-539 CNS
KM12 colon = test system: KM12 colon
DU-145 prostate = test system: DU-145 prostate
SNB-19 CNS = test system: SNB-19 CNS
SF-295 CNS = test system: SF-295 CNS
NCI-H460 lung = test system: NCI-H460 lung
HCC-2998 colon = test system: HCC-2998 colon
MDA-MB-435 = test system: MDA-MB-435
SK-MEL-28 melanoma = test system: SK-MEL-28 melanoma
SK-MEL-5 melanoma = test system: SK-MEL-5 melanoma
PC-3 prostate = test system: PC-3 prostate
K-562 leukemia = test system: K-562 leukemia
M14 melanoma = test system: M14 melanoma
A498 renal = test system: A498 renal
UACC-257 melanoma = test system: UACC-257 melanoma
IGROV1 ovarian = test system: IGROV1 ovarian
MOLT-4 leukemia = test system: MOLT-4 leukemia
SF-268 CNS = test system: SF-268 CNS
TK-10 renal = test system: TK-10 renal
HOP-92 NSCLC = test system: HOP-92 NSCLC
786-0 renal = test system: 786-0 renal
RPMI-8226 leukemia = test system: RPMI-8226 leukemia
NCI/ADR-RES ovarian = test system: NCI/ADR-RES ovarian
NCI-H23 lung = test system: NCI-H23 lung
BT-549 breast = test system: BT-549 breast
MDA-MB-231 breast = test system: MDA-MB-231 breast
CAKI-1 renal = test system: CAKI-1 renal
NCI-H522 lung = test system: NCI-H522 lung
OVCAR-4 ovarian = test system: OVCAR-4 ovarian
LOX IMVI melanoma = test system: LOX IMVI melanoma

CCOC(=O)c1csc(-c2nc(CCNC(=O)c3ccccc3)sc2Cl)n1
TGI (OVCAR-8 ovarian): > 100 µM | TGI (SW-620 colon): > 100 µM | TGI (UACC-62 melanoma): > 100 µM | TGI (CCRF-CEM leukemia): > 100 µM | TGI (HL-60(TB) leukemia): > 100 µM | TGI (NCI-H226 lung): > 100 µM | TGI (OVCAR-5 ovarian): > 100 µM | TGI (SN12C renal): > 100 µM | TGI (RXF 393 renal): > 100 µM | TGI (OVCAR-3 ovarian): > 100 µM | TGI (ACHN renal): > 100 µM | TGI (EKVX NSCLC): > 100 µM | TGI (SNB-75 CNS): > 100 µM | TGI (MDA-N): > 100 µM | TGI (HS 578T breast): > 100 µM | TGI (HCT-15 colon): > 100 µM | TGI (A549 NSCLC): > 100 µM | TGI (HT29 colon): > 100 µM | TGI (SK-OV-3 ovarian): > 100 µM | TGI (HOP-62 NSCLC): > 100 µM | TGI (MALME-3M melanoma): > 100 µM | TGI (MCF7 breast): > 100 µM | TGI (SR leukemia): > 100 µM | TGI (COLO 205 colon): > 100 µM | TGI (UO-31 renal): > 100 µM | TGI (HCT-116 colon): > 100 µM | TGI (U251 CNS): > 100 µM | TGI (SF-539 CNS): > 100 µM | TGI (KM12 colon): > 100 µM | TGI (DU-145 prostate): > 100 µM | TGI (SNB-19 CNS): > 100 µM | TGI (SF-295 CNS): > 100 µM | TGI (NCI-H460 lung): > 100 µM | TGI (HCC-2998 colon): > 100 µM | TGI (MDA-MB-435): > 100 µM | TGI (SK-MEL-28 melanoma): > 100 µM | TGI (SK-MEL-5 melanoma): > 100 µM | TGI (PC-3 prostate): > 100 µM | TGI (K-562 leukemia): > 100 µM | TGI (M14 melanoma): > 100 µM | TGI (A498 renal): > 100 µM | TGI (UACC-257 melanoma): > 100 µM | TGI (IGROV1 ovarian): > 100 µM | TGI (MOLT-4 leukemia): > 100 µM | TGI (SF-268 CNS): > 100 µM | TGI (TK-10 renal): > 100 µM | TGI (HOP-92 NSCLC): 46.4 µM | TGI (786-0 renal): > 100 µM | TGI (RPMI-8226 leukemia): > 100 µM | TGI (NCI/ADR-RES ovarian): > 100 µM | TGI (NCI-H23 lung): > 100 µM | TGI (BT-549 breast): > 100 µM

NC(Cc1ccc(O)cn1)C(=O)O (stereo not given)
TGI (MDA-MB-231 breast): > 100 µM | TGI (OVCAR-8 ovarian): > 100 µM | TGI (SW-620 colon): > 100 µM | TGI (CAKI-1 renal): > 100 µM | TGI (NCI-H522 lung): > 100 µM | TGI (HL-60(TB) leukemia): > 100 µM | TGI (NCI-H226 lung): > 100 µM | TGI (OVCAR-5 ovarian): > 100 µM | TGI (SN12C renal): > 100 µM | TGI (RXF 393 renal): > 100 µM | TGI (OVCAR-3 ovarian): > 100 µM | TGI (ACHN renal): > 100 µM | TGI (EKVX NSCLC): > 100 µM | TGI (SNB-75 CNS): > 100 µM | TGI (MDA-N): > 100 µM | TGI (HS 578T breast): > 100 µM | TGI (HCT-15 colon): > 100 µM | TGI (A549 NSCLC): > 100 µM | TGI (OVCAR-4 ovarian): > 100 µM | TGI (HT29 colon): > 100 µM | TGI (HOP-62 NSCLC): > 100 µM | TGI (MALME-3M melanoma): > 100 µM | TGI (MCF7 breast): > 100 µM | TGI (SR leukemia): > 100 µM | TGI (COLO 205 colon): > 100 µM | TGI (UO-31 renal): > 100 µM | TGI (HCT-116 colon): > 100 µM | TGI (U251 CNS): > 100 µM | TGI (SF-539 CNS): > 100 µM | TGI (KM12 colon): > 100 µM | TGI (DU-145 prostate): > 100 µM | TGI (SNB-19 CNS): > 100 µM | TGI (SF-295 CNS): > 100 µM | TGI (NCI-H460 lung): > 100 µM | TGI (HCC-2998 colon): > 100 µM | TGI (MDA-MB-435): > 100 µM | TGI (SK-MEL-28 melanoma): > 100 µM | TGI (SK-MEL-5 melanoma): > 100 µM | TGI (LOX IMVI melanoma): > 100 µM | TGI (PC-3 prostate): > 100 µM | TGI (K-562 leukemia): > 100 µM | TGI (A498 renal): > 100 µM | TGI (UACC-257 melanoma): > 100 µM | TGI (IGROV1 ovarian): > 100 µM | TGI (MOLT-4 leukemia): > 100 µM | TGI (SF-268 CNS): > 100 µM | TGI (TK-10 renal): > 100 µM | TGI (HOP-92 NSCLC): > 100 µM | TGI (786-0 renal): > 100 µM | TGI (RPMI-8226 leukemia): > 100 µM | TGI (NCI/ADR-RES ovarian): > 100 µM | TGI (NCI-H23 lung): > 100 µM | TGI (BT-549 breast): > 100 µM

Source: PubChem BioAssay (NCI)
